In paper PMC5860131, “Identification of natural products as novel ligands for the human 5-HT2C receptor” (Biophysics Reports, 2018):

Assays:
Type in all cases: binding
[1] = molecular target: T1, 5-HT2C receptor A222^5.46F (Homo sapiens, UniProt P28335, A222F/DEL255-298/G251D/H250E/H252N/INS299[…]/L248D/M247A/M300L/T253W); experiment: CPM thermal stability assay, 5-HT2C mutant A222F; settings: mutant A222^5.46F, n = 2
T1 construct: the N- and C-terminals were truncated by 39 and 65 residues, respectively; PreScission protease site + 10× His (C); made in house
T1 sequence (P28335 with tags, fused parts or gaps with the stated changes): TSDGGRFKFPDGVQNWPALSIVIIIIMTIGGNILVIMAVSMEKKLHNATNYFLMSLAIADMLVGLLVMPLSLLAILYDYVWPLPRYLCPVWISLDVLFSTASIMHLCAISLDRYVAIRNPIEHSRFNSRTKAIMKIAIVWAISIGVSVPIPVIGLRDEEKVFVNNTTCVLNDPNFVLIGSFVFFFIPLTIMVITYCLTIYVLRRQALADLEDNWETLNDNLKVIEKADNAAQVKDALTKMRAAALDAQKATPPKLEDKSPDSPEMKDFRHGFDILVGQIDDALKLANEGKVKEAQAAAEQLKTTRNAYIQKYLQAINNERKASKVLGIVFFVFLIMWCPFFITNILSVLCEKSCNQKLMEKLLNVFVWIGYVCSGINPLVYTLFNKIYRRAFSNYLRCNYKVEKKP
Description: (§1) Based on the binding poses predicted by molecular docking, single-point mutations were designed to test their impact on ligand binding. Mutations of several residues include the highly conserved Asp134^3.32, which is known to cause 5-HT1B or 5-HT2B receptors to abolish the monoamine ligand binding as reported in the literature (Wang et al. [2013]). In this study, residues forming hydrophobic interactions with the substitution groups on the aporphine scaffold of (–)-crebanine (1) were selected for mutation as well and they are Thr139^3.37, Gly218^5.42, Ala222^5.46, and Leu209^ECL2. Effects of those mutations were tested with the CPM assay and the affinity MS assay (Table 2). In the affinity MS experiment, relative ligand-binding capacity (represented by binding %) to different mutants and the wild-type receptor was compared. […]
Purified 5-HT2C receptor protein was thoroughly mixed with CPM fluorescent dyes. […] Fluorescence signals, wavelength 387 nm (excitation) and 463 nm (emission), were monitored (Alexandrov et al. [2008]). […] The thermal denaturation of the samples was evaluated using the scatter plot curve, where the horizontal coordinates represented temperature and the vertical coordinates indicated normalized fluorescence intensity recorded for a particular temperature. […]

[2] = molecular target: T2, 5-HT2C receptor G218^5.42A (Homo sapiens, UniProt P28335, DEL255-298/G218A/G251D/H250E/H252N/INS299[…]/L248D/M247A/M300L/T253W); experiment: Affinity MS assay, 5-HT2C mutant G218A
T2 construct: the N- and C-terminals were truncated by 39 and 65 residues, respectively; PreScission protease site + 10× His (C); made in house
T2 sequence (P28335 with tags, fused parts or gaps with the stated changes): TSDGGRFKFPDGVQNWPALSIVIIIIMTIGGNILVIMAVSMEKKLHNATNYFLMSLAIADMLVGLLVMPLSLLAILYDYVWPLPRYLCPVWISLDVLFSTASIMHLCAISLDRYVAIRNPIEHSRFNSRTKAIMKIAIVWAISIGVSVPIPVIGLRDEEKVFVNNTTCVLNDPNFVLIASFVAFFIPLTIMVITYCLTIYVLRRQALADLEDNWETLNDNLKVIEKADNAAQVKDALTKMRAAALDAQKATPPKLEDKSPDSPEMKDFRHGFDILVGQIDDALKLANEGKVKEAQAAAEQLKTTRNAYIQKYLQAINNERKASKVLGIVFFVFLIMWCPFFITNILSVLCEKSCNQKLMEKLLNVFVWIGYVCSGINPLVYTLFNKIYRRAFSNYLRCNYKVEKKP
Description: as §1, with “compared. Among the six mutations tested, five of them reduced the binding of (–)-crebanine (1) by more than 40% relative to binding to the wild-type receptor, displaying the importance of hydrophobic interactions.” for “compared.”
(§2) Four experimental replicates were prepared for each pair of the test ligand and the negative control. […] S/C ratios refer to the ratio of MS response of a specific ligand detected in the 5-HT2C incubation sample versus the control. […]

[3] = molecular target: T3, 5-HT2C receptor T139^3.37A (Homo sapiens, UniProt P28335, DEL255-298/G251D/H250E/H252N/INS299[…]/L248D/M247A/M300L/T139A/T253W); experiment: Affinity MS assay, 5-HT2C mutant T139A; settings: mutant T139^3.37A, n = 2
T3 construct: the N- and C-terminals were truncated by 39 and 65 residues, respectively; PreScission protease site + 10× His (C); made in house
T3 sequence (P28335 with tags, fused parts or gaps with the stated changes): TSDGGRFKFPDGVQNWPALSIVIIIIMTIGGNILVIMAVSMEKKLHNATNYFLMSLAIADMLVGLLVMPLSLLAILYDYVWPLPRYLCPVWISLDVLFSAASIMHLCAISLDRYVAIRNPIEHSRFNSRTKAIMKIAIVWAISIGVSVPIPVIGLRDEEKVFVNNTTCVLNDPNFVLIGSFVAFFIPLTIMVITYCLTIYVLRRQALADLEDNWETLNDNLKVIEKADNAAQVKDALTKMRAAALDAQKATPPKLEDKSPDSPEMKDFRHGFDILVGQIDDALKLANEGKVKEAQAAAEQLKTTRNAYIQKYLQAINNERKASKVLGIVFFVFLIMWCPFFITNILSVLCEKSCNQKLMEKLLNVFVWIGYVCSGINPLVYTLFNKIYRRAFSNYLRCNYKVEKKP
Description: as §1, with “compared. Among the six mutations tested, five of them reduced the binding of (–)-crebanine (1) by more than 40% relative to binding to the wild-type receptor, displaying the importance of hydrophobic interactions.” for “compared.”
as §2

[4] = molecular target: T4, 5-HT2C receptor L209^ECL2F (Homo sapiens, UniProt P28335, DEL255-298/G251D/H250E/H252N/INS299[…]/L209F/L248D/M247A/M300L/T253W); experiment: Affinity MS assay, 5-HT2C mutant L209F; settings: n = 2
T4 construct: the N- and C-terminals were truncated by 39 and 65 residues, respectively; PreScission protease site + 10× His (C); made in house
T4 sequence (P28335 with tags, fused parts or gaps with the stated changes): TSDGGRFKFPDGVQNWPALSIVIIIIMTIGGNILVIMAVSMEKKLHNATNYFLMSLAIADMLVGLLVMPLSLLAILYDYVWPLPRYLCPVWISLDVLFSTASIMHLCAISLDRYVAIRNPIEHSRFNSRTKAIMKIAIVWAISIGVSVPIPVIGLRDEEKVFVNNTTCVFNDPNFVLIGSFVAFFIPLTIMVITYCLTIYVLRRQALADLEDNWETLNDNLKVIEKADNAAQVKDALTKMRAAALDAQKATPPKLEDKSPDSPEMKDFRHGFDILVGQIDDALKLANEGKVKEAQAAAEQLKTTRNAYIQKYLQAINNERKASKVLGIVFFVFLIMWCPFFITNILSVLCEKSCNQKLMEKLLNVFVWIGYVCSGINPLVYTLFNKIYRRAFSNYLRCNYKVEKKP
Description: as §1, with “compared. Among the six mutations tested, five of them reduced the binding of (–)-crebanine (1) by more than 40% relative to binding to the wild-type receptor, displaying the importance of hydrophobic interactions.” for “compared.”
as §2

[5] = molecular target: T5, 5-HT2C receptor (Homo sapiens, UniProt P28335, DEL255-298/G251D/H250E/H252N/INS299[…]/L248D/M247A/M300L/T253W)
T5 construct: the N- and C-terminals were truncated by 39 and 65 residues, respectively; FLAG (N); PreScission protease site + 10× His (C); made in house; host or cells: Spodoptera frugiperda (Sf9), baculovirus
T5 sequence (P28335 with tags, fused parts or gaps with the stated changes limits assumed): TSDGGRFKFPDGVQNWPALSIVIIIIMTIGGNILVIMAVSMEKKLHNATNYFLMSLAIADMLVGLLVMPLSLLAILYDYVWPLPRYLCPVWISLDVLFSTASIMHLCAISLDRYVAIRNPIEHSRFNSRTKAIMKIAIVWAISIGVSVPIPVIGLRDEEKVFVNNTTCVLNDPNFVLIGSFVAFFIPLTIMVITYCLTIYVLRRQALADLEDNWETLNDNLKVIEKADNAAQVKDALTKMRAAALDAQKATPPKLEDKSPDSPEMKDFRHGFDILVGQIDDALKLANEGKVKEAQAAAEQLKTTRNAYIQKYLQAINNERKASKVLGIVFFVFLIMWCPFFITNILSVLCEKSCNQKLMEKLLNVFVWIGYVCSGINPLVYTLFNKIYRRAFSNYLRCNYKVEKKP

COc1ccc2c(c1OC)C[C@@H]1c3c(cc4c(c3-2)OCO4)CCN1C [Compound 1, (–)-crebanine]
(–)-Crebanine/CPM (Tm) [1]: 55.70 °C
(–)-Crebanine/MS relative ligand binding ([2]; mutant G218^5.42A, n = 2): 9.82%
ligand-binding capacity reduction versus wild-type ([2]; mutation Gly218^5.42Ala): over 60%
(–)-Crebanine/MS relative ligand binding [3]: 14.64%
(–)-Crebanine/MS relative ligand binding [4]: 13.22%
(–)-Crebanine/MS relative ligand binding ([5]; WT receptor, n = 2, MS response of released ligand divided by total ligand in incubation sample): 27.57%
S/C ([5]; ratio of MS response in 5-HT2C incubation sample versus control (hydroxycarboxylic acid receptor 2), 500 nmol/L protein, 250 nmol/L ligand, n = 4): 9.15 ± 1.43
